Test results reported in publication PMC9000336, “Development of Bicyclo[3.1.0]hexane-Based A3 Receptor Ligands: Closing the Gaps in the Structure–Affinity Relationships” (Molecules, 2022).

What was measured:
[1] = target: T1, human adenosine A3 receptor (Homo sapiens, UniProt P0DMS8); assay: Radioligand displacement assay, human adenosine A3 receptor ([3H]PSB11, CHOhA3R membranes); assay type: binding; settings: n = 3; for Ki: footnote a: tested at 1 µM, read-out: A3 Ki (bound, footnote a); for A3 displacement at 1 µM: footnote a: test compound 1 µM
T1 construct: expressed in transfected cells; host or cells: CHO cells (CHOhA3R), gift of Dr. K.-N. Klotz (University of Würzburg); membrane preparation
T1 sequence (P0DMS8 1-318): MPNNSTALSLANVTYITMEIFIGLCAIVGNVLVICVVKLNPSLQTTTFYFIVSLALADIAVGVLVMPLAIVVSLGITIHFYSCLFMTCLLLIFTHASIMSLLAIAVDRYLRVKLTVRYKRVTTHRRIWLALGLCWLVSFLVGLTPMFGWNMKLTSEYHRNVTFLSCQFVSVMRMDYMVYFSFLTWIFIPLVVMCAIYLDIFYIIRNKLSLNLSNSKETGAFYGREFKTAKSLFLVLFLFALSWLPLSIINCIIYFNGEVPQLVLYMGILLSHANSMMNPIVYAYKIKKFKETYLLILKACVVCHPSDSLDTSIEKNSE
Protocol: Chinese hamster ovary (CHO) cells stably expressing the human adenosine A1 receptor (CHOhA1R) were kindly provided by Prof. S. J. Hill and CHO cells stably expressing the human adenosine A3 receptor (CHOhA3R) were a gift from Dr. K.-N. Klotz (University of Würzburg, Germany). Chinese hamster ovary cells stably expressing the human A1-receptor (CHOhA1R) or the human A3-receptor (CHOhA3R) were grown in Dulbecco’s Modified Eagle’s Medium (DMEM) and Ham’s F12 medium (1:1) supplemented with 10% (v/v) newborn calf serum, 50 µg/mL streptomycin, 50 IU/mL penicillin, and 200 µg/mL G418 at 37 °C and 5% CO2. […] All cells were grown to 80–90% confluency and detached from plates by scraping them into 5 mL phosphate-buffered saline. Detached cells were collected and centrifuged at 200 g for 5 min. Pellets derived from 100 15 cm Ø plates were pooled and resuspended in 70 mL of ice-cold 50 mM tris(hydroxymethyl)aminomethane (Tris)-HCl buffer, pH 7.4. A Heidolph Diax 900 homogenizer was used to homogenize the cell suspension. Membranes and the cytosolic fraction were separated by centrifugation at 100,000 g in a Beckman Optima LE-80 K ultracentrifuge (Beckman Coulter, Fullerton, CA, USA) at 4 °C for 20 min. The pellet was resuspended in 35 mL of the Tris-HCl buffer, and the homogenization and centrifugation steps were repeated. Tris-HCl buffer (25 mL) was used to resuspend the pellet, and adenosine deaminase (ADA) was added (0.8 U/mL) to break down endogenous adenosine. Membranes were stored in 250 µL and 500 µL aliquots at −80 °C. Total protein concentrations were measured using the bicinchoninic acid (BCA) method.
A3 Receptor: Membrane aliquots containing 15 µg (CHOhA3R) total protein were incubated in a total volume of 100 µL assay buffer (50 mM Tris-HCl, pH 8.0, supplemented with 10 mM MgCl2, 1 mM EDTA and 0.01% (w/v) CHAPS) at 25 °C for 2 h. Radioligand displacement experiments were performed using six concentrations of competing ligand in the presence of 10 nM [^3H]8-ethyl-4-methyl-2-phenyl-(8R)-4,5,7,8-tetrahydro-1H-imidazo[2.1-i]purin-5-one ([^3H]PSB11). […] Nonspecific binding was determined in the presence of 100 µM NECA. Incubations were terminated by rapid vacuum filtration to separate the bound and free radioligand through prewetted 96-well GF/B filter plates using a PerkinElmer Filtermate-harvester (Perkin Elmer, Groningen, The Netherlands). Filters were subsequently washed 12 times with ice-cold 50 mM Tris-HCl supplemented with 10 mM MgCl2, and 1 mM EDTA, pH 8.0 for CHOhA3R.
(§1) The plates of all four adenosine receptor assays were dried at 55 °C after which MicroscintTM-20-cocktail was added (Perkin Elmer, Groningen, The Netherlands).
(§2) All experimental data were analyzed using the non-linear regression curve fitting program GraphPad Prism 7.0 (GraphPad Software Inc., San Diego, CA, USA). IC50 values obtained from competition displacement binding data were converted into Ki values using the Cheng–Prusoff equation.

[2] = target: T2, human adenosine A2A receptor (Homo sapiens, UniProt P29274); assay: Radioligand displacement assay, human adenosine A2A receptor ([3H]ZM241385, HEK293hA2AR membranes); assay type: binding; settings: n = 3; for Ki: footnote a: tested at 1 µM, read-out: A2A Ki (bound, footnote a)
T2 construct: expressed in transfected cells; host or cells: HEK293 cells (HEK293hA2AR), from Dr. J. Wang (Biogen/IDEC); membrane preparation
Protocol: Human embryonic kidney 293 cells stably expressing the human adenosine A2A receptor (HEK293hA2AR) were kindly provided by Dr. J. Wang (Biogen/IDEC, Cambridge, MA, USA), CHO-spap cells stably expressing the wild-type (WT) hA2B receptor (CHO-spap-hA2BR) were kindly provided by S. J. Dowell (GlaxoSmithKline, Brentfort, UK).
All cells were grown to 80–90% confluency and detached from plates by scraping them into 5 mL phosphate-buffered saline. Detached cells were collected and centrifuged at 200 g for 5 min. Pellets derived from 100 15 cm Ø plates were pooled and resuspended in 70 mL of ice-cold 50 mM tris(hydroxymethyl)aminomethane (Tris)-HCl buffer, pH 7.4. A Heidolph Diax 900 homogenizer was used to homogenize the cell suspension. Membranes and the cytosolic fraction were separated by centrifugation at 100,000 g in a Beckman Optima LE-80 K ultracentrifuge (Beckman Coulter, Fullerton, CA, USA) at 4 °C for 20 min. The pellet was resuspended in 35 mL of the Tris-HCl buffer, and the homogenization and centrifugation steps were repeated. Tris-HCl buffer (25 mL) was used to resuspend the pellet, and adenosine deaminase (ADA) was added (0.8 U/mL) to break down endogenous adenosine. Membranes were stored in 250 µL and 500 µL aliquots at −80 °C. Total protein concentrations were measured using the bicinchoninic acid (BCA) method.
Nonspecific binding was determined in the presence of 100 µM adenosine-5-N-ethyluronamide (NECA). Incubations were terminated by rapid vacuum filtration to separate the bound and free radioligand through prewetted 96-well GF/B filter plates using a PerkinElmer Filtermate-harvester (Perkin Elmer, Groningen, The Netherlands). Filters were subsequently washed 12 times with ice-cold 50 mM Tris-HCl, pH 7.4.
as §1, §2

T2 sequence (P29274 whole entry): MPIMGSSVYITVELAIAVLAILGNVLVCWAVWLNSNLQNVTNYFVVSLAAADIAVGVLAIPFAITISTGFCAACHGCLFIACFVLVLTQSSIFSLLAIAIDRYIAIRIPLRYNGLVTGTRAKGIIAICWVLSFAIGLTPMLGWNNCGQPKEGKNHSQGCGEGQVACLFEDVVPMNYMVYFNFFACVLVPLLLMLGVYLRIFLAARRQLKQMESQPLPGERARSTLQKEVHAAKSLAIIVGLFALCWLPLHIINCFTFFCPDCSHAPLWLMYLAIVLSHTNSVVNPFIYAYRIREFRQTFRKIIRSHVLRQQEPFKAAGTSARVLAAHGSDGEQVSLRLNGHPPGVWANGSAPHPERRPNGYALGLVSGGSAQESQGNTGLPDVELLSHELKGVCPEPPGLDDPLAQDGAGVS

Row | inhibition at 10 µM ([1]; test compound 10 µM) [%] | A2A displacement at 10 µM ([2]; test compound 10 µM) [%] | Ki [1] [nM] | Ki [2] [nM] | A3 displacement at 1 µM [1] [% ^a] | SMILES
1 | 13 | 3 | – | – | – | CSc1nc(N)c2ncn([C@H]3[C@H](O)[C@H](O)[C@]4(Cn5cc(CN)nn5)C[C@H]34)c2n1 [Compound 43, (1R,2R,3S,4R,5S)-4-(6-Amino-2-methylthio-9H-purin-9-yl)-1-{[4-(aminomethyl)-1H-1,2,3-triazol-1-yl]methyl}bicyclo[3.1.0]hexane-2,3-diol]
2 | – | – | > 1000 | > 1000 | – | CSc1nc(N)c2ncn([C@H]3[C@H](O)[C@H](O)[C@]4(Cn5cc(C(=O)O)nn5)C[C@H]34)c2n1 [Compound 44, 1-{[(1R,2R,3S,4R,5S)-4-(6-Amino-2-methylthio-9H-purin-9-yl)-2,3-dihydroxybicyclo[3.1.0]hex-1-yl]methyl}-1H-1,2,3-triazole-4-carboxylic acid]
3 | – | – | > 1000 | > 1000 | – | CSc1nc(N)c2ncn([C@H]3[C@H](O)[C@H](O)[C@]4(Cn5cc(CC(=O)O)nn5)C[C@H]34)c2n1 [Compound 45, 2-(1-{[(1R,2R,3S,4R,5S)-4-(6-Amino-2-methylthio-9H-purin-9-yl)-2,3-dihydroxybicyclo[3.1.0]hex-1-yl]methyl}-1H-1,2,3-triazol-4-yl)acetic acid]
4 | – | – | – | > 1000 | 6 | CCN(CC)CC.CSc1nc(N)c2ncn([C@H]3[C@H](O)[C@H](O)[C@]4(CNc5c(O)c(=O)c5=O)C[C@H]34)c2n1 [Compound 47, Triethylammonium 2-{[(1R,2R,3S,4R,5S)-4-(6-Amino-2-methylthio-9H-purin-9-yl)-2,3-dihydroxybicyclo[3.1.0]hex-1-yl]methyl}amino-3,4-dioxocyclobut-1-en-1-olate]
5 | – | – | – | > 1000 | 5 | CCN(CC)CC.CSc1nc(N)c2ncn([C@H]3[C@H](O)[C@H](O)[C@]4(CNS(=O)(=O)CC(=O)O)C[C@H]34)c2n1 [Compound 48, Triethylammonium 2-(N-{[(1R,2R,3S,4R,5S)-4-(6-amino-2-methylthio-9H-purin-9-yl)-2,3-dihydroxybicyclo[3.1.0]hex-1-yl]methyl}sulfamoyl)acetate]

Row | SMILES | inhibition at 10 µM ([1]; test compound 10 µM) [%] | A2A displacement at 10 µM ([2]; test compound 10 µM) [%] | Ki [1] [nM] | Ki [2] [nM] | A3 displacement at 1 µM [1] [% ^a]
6 | CSc1nc(N)c2ncn([C@H]3[C@H](O)[C@H](O)[C@]4(Cn5cc(CCC(=O)O)nn5)C[C@H]34)c2n1 [Compound 46] | – | – | > 1000 | > 1000 | –
